Source: US20140349941A1, “AROMATIC-CATIONIC PEPTIDES AND USES OF SAME” (Cornell University, priority 2011, published 2014)
Where no end group is shown, it is not given here. [ ]: non-standard residue; d: D form.

Columns and labels:
cytochrome c-CL complex [1] = biological target: T1, cytochrome c-CL complex (Homo sapiens, UniProt P99999); assay: Cytochrome c/CL peroxidase activity (amplex red); format: biochemical; settings: figure legend FIG. 29A-C; comparison at a fixed concentration of 10 μM (FIG. 29C)
Text: The six coordination of the heme in cytochrome c prevents direct interaction of H2O2 with the catalytic metal site, and native cytochrome c in solution is a poor peroxidase. Upon interaction with CL, cytochrome c undergoes a structural change with rupture of the Fe-Met80 coordination. […] The mechanism of action of cytochrome c peroxidase is similar to that of other peroxidases, such as horse radish peroxidase (HRP). Thus it is possible to use the amplex red-HRP reaction to investigate cytochrome c peroxidase activity. In the presence of peroxidase, amplex red (AR) reacts with H2O2 to form the red-fluorescent oxidation product, resorufin (Ex/Em=571/585).
Cytochrome c (2 μM) was mixed with CL (25 μg/ml) and 10 μM H2O2 in 20 mM HEPES, pH 7.4. Amplex red (50 μM) was then added and fluorescence emission monitored in real time using Hitachi F4500 fluorescence spectrophotometer. Addition of amplex red elicited rapid increase in fluorescence signal due to resorufin formation, providing direct evidence for peroxidase activity of cytochrome c/CL complex (FIG. 29A).

cytochrome c = cytochrome c (Homo sapiens, UniProt P99999); assay: Cytochrome c reduction monitored by absorption spectroscopy (glutathione or NAC as reducing agent); format: biochemical; settings: absorbance at 550 nm; FIG. 13
Protocol: Cytochrome c reduction: increasing amounts of aromatic-cationic peptides were added to a solution of oxidized cyt c. The formation of reduced cyt c was monitored by absorbance at […]. The rate of cyt c reduction was determined by non-linear analysis (Prizm software).
Time-resolved UV-Visible absorption spectroscopy was used to study the electron transport process of cyt c in the presence of peptides. Reduced cyt c was monitored by absorbance at a broad-band spectral range (200-1100 nm). The absorption changes were recorded with a UV/Visible spectrophotometer (Ultrospec 3300 pro, GE) in quartz cells with path lengths of 1 or 2 mm. N-acetylcysteine (NAC) and glutathione were used as electron donors to reduce oxidized cyt c. The rate constant of cyt c reduction was estimated by adding various concentrations of peptides. The dose dependence of the peptides was correlated to the cyt c reduction kinetics.
Absorption spectroscopy (UltroSpec 3300 Pro; 220-1100 nm) was used to determine if SS-31 modulates cyt c reduction (FIG. 1). Reduction of cyt c with glutathione is associated with multiple shifts in the Q band (450-650 nm), with a prominent shift at 550 nm.
Reduction of cyt c was monitored by increase in absorbance at 550 nm. […] Similar results were obtained using N-acetylcysteine (NAC) as a reducing agent (not shown).

[2] = test system: isolated rat kidney mitochondria; assay: O2 consumption of isolated rat kidney mitochondria (Oxygraph); format: biochemical
Protocol: (§1) Fresh mitochondria were isolated from rat kidney as described previously. Electron flux was measured by O2 consumption (Oxygraph Clark electrode) as previously described using different substrates for C1 (glutamate/malate), C2 (succinate), and C3 (TMPD/ascorbate). Assays were carried out under low substrate conditions in order to avoid saturating the enzyme reactions. ATP production in isolated mitochondria was determined kinetically using the luciferase method (Biotherma) in a 96-well luminescence plate reader (Molecular Devices). The initial maximal rate for ATP synthesis was determined over the first minute.
Oxygen consumption of isolated rat kidney mitochondria was determined using the Oxygraph (FIG. 5). Rates of respiration were measured in the presence of different concentrations of SS-31 in state 2 (400 μM ADP only), state 3 (400 μM ADP and 500 μM substrates) and state 4 (substrates only). All experiments were done in triplicate with n=4-7.
(§2) SS-20 or SS-31 was added at 100 μM concentrations to isolated mitochondria in respiration buffer containing 0.5 mM succinate (complex II substrate) and 400 μM ADP. Similar increases in O2 consumption were observed when low concentrations of complex I substrates (glutamate/malate) were used (data not shown).
SS-20 or SS-31 was added at 10 μM or 100 μM concentrations to isolated mitochondria in respiration buffer containing glutamate/malate (complex I substrate), 0.5 mM succinate (complex II substrate) or 3 μM TMPD/1 mM ascorbate (direct reductant of cyt C). 400 μM ADP was added to initiate State 3 respiration.

[3] = biological target: heme environment of cytochrome c (with CL) (Homo sapiens, UniProt P99999); assay: Soret CD spectrum of cyt C in the presence of CL; format: binding; settings: cyt C 10 μM; CL 30 μg/ml; peptide 10 μM; 20 mM HEPES pH 7.5, 25° C.; FIG. 24
Protocol: Circular dichroism (CD) was carried out to examine the effects of the peptides on protecting the heme environment of cyt C from the acyl chain of CL. For heme proteins, the Soret CD spectrum is strictly correlated with the heme pocket conformation. In particular, the negative 416-420 nm Cotton effect is considered diagnostic of Fe(III)-Met80 coordination in native cyt C (Santucci and Ascoli, 1997). […] CD spectra were obtained using AVIV CD Spectrometer Model 410.
Changes in the Soret CD spectrum of cyt C (10 μM) were recorded in the absence (dotted line) and presence (dashed line) of 30 μg/ml CL, plus addition of different peptides (10 μM) (solid line) (FIG. 24). CD measurements were carried out using 20 mM HEPES, pH 7.5, at 25° C. and expressed as molar ellipticity (θ) (m Deg).

isolated mitochondria = assay: ATP synthesis in isolated mitochondria; format: biochemical, rat; settings: mitochondria energized with low concentrations of succinate; FIG. 15
Protocol: as §1
The rate of mitochondrial ATP synthesis was determined by measuring ATP in respiration buffer collected from isolated mitochondria 1 min after addition of […] (FIG. 6). ATP was assayed by HPLC. All experiments were carried out in triplicate, with n=3.
as §2
Increase in electron flux in the electron transport chain can either result in increase in ATP synthesis or increase in electron leak and generation of free radicals. ATP synthesis in isolated mitochondria was assayed by HPLC.

cytochrome c (with CL) = cytochrome c (with CL) (Homo sapiens, UniProt P99999); assay: Cytochrome c reduction inhibited by CL; format: biochemical; settings: 500 μM GSH; FIG. 25C
Protocol: Cytochrome c is a carrier of electrons between respiratory complex III and IV in mitochondria. Cytochrome c is reduced (Fe^2+) after it accepts an electron from cytochrome c reductase, and it is then oxidized to Fe^3+ by cytochrome c oxidase.
Reduction of cytochrome c (20 μM) was induced by the addition of glutathione (500 μM) in the absence or presence of CL (100 μg/ml) (FIG. 25A). Reduction of cytochrome c was monitored by absorbance at 550 nm using a 96-well UV-VIS plate reader (Molecular Devices). Addition of CL decreased the rate of cytochrome c reduction by half.

cytochrome c-CL complex [4] = biological target: T1, cytochrome c-CL complex; assay: Fluorescence spectroscopy of peptide with cytochrome c in the presence of CL; format: binding; settings: for peptide fluorescence on addition of cytochrome c in the presence of CL: 2 μM cytochrome c; for emission maxima: with CL 2.5 μg/ml
Protocol: Fluorescence emission of SS-19 (10 μM) was monitored in real time (Ex/Em=320 nm/420 nm) using Hitachi F-4500 fluorescence spectrophotometer. […] CL may potentiate the interaction between SS-19 and cytochrome c by serving as an anionic platform for the two cationic molecules.
The quenching by cytochrome c was not displaced by sequential additions of bovine serum albumin (500 μg/ml) (FIG. 23C, A+arrows).
SS-36 also contains the polarity-sensitive fluorescent amino acid aladan.

[5] = Fluorescence spectroscopy of peptide interaction with cardiolipin; format: binding; settings: for increase in quantal yield of peptide fluorescence: peptide 1 μM
Text: The peptides Dmt-D-Arg-(atn)Dap-Lys-NH2 (SS-19) and Dmt-D-Arg-Phe-Lys-Ald-NH2 (SS-37)cationic peptides carry net positive charge at neutral pH. They are expected to associate with anionic phospholipid cardiolipin based on electrostatic interaction. The interaction of small peptides with lipid membranes can been studied using fluorescence spectroscopy (Surewicz and Epand, 1984). […] Polarity-sensitive fluorescent probes were incorporated into the peptides and fluorescence spectroscopy was used to determine if SS-19, SS-37 and SS-36 interact with CL.
The peptide Dmt-D-Arg-Phe-(atn)Dap-NH2 (SS-19) contains anthraniloyl incorporated into diaminopropionic acid. Anthraniloyl derivatives fluoresce in the 410-420 nm range when excited at 320-330 nm (Hiratsuka T, 1983). The quantum yield of anthraniloyl derivatives is strongly dependent on the local environment, and can increase 5-fold going from water to 80% ethanol, together with a blue shift in the emission maxima (λ max) of <10 nm (Hiratsuka T, 1983). Fluorescence emission spectrum of SS-19 (1 μM) alone, and in the presence of increasing concentrations of CL (5 to 50 μg/ml), was monitored following excitation at 320 nm using Hitachi F-4500 fluorescence spectrophotometer.
The peptide Dmt-D-Arg-Phe-Lys-Ald-NH2 (SS-37) contains an additional amino acid, aladan (Ald), which has been reported to be particularly sensitive to the polarity of its environment and it has been used to probe the electrostatic character of proteins (Cohen et al., 2002). When excited at 350 nm, λmax shifts from 542 nm in water to 409 nm in heptane, accompanied by a significant increase in quantal yield (Cohen et al., 2001). Fluorescence emission spectrum of SS-37 (1 μM) alone, and in the presence of increasing concentrations of CL, was monitored following excitation at 350 nm. Addition of CL (5 to 50 μg/ml) led to a 3-fold increase in quantal yield of SS-37 as well as a clear blue shift in λmax, from 525 nm without CL to 500 nm with 50 μg/ml CL (FIG. 21B).
The peptide Dmt-D-Arg-Ald-Lys-NH2 (SS-36) contains Ald in place Phe^3. Fluorescence emission spectrum of SS-36 (1 μM) alone, and in the presence of increasing concentrations of CL, was monitored following excitation at 350 nm. SS-36 was the most sensitive to the addition of CL, with dramatic increase in quantal yield and blue shift observed with much lower added amounts of CL (1.25 to 5 μg/ml). The λmax shifted from 525 nm without CL to 500 nm with as little as 1.25 μg/ml CL, and quantal yield increased by more than 100-fold with the addition of 5 μg/ml of CL (FIG. 21C).

Sequence of heme environment of cytochrome c (with CL) (P99999 2-105 limits assumed, species assumed): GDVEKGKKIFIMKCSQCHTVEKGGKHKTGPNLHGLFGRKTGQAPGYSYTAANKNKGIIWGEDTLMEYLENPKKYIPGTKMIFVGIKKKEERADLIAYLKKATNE
T1 sequence (P99999 2-105 limits assumed, species assumed, one chain of several): as the sequence (P99999 2-105 limits assumed, species assumed) above
Sequence of cytochrome c (with CL) (P99999 2-105 limits assumed, species assumed): as above
Sequence of cytochrome c (P99999 2-105 limits assumed, species assumed): as above

## F[dR]FK-NH2 [SS-20]
Cytochrome c-CL complex [1]
  peroxidase activity in cytochrome c/CL complex: preventing peroxidase activity in cytochrome c/CL complex
Cytochrome c
  kinetics of cyt c reduction induced by glutathione (GSH): can accelerate the kinetics of cyt c reduction
[2]; glutamate/malate, succinate or TMPD/ascorbate, 400 μM ADP, FIG. 26
  O2 consumption in state 3 respiration: increases O2 consumption in state 3 respiration
[2]; peptide 10 μM or 100 μM, complex I, complex II substrate or TMPD/ascorbate, FIG. 26
  electron flux, as measured by O2 consumption: can promote electron flux
[2]; peptide 100 μM, 0.5 mM succinate, 400 μM ADP, FIG. 14
  electron flux, as measured by O2 consumption: can promote electron flux
[3]
  disappearance of the negative Cotton effect caused by CL (heme environment of cytochrome c): Protect the Heme Environment of Cytochrome C from the Acyl Chain of CL
Isolated mitochondria
  rate of ATP production: significant increase in the rate of ATP production
Cytochrome c (with CL)
  CL inhibition of cyt C reduction: prevented CL inhibition of cyt C reduction

## Dmt-D-Arg-Ald-Lys-NH2 [SS-36]
Cytochrome c-CL complex [4]; CL 2.5 μg/ml, FIG. 23D
  peptide fluorescence on addition of cytochrome c in the presence of CL: dramatic quenching of peptide's fluorescence
  peptide fluorescence on addition of CL: increase in SS-36 fluorescence
Cytochrome c-CL complex [4]; after 2 μM cytochrome c
  emission maxima: 450 nm
Cytochrome c-CL complex [4]; before cytochrome c
  emission maxima: 510 nm
Cytochrome c-CL complex [1]
  peroxidase activity in cytochrome c/CL complex: preventing peroxidase activity in cytochrome c/CL complex
[5]; CL 5 μg/ml, excitation 350 nm
  increase in quantal yield of peptide fluorescence: more than 100 fold
[5]; with 1.25 μg/ml CL, excitation 350 nm
  λmax of fluorescence emission: 500 nm
[5]; without CL, excitation 350 nm
  λmax of fluorescence emission: 525 nm
[3]
  disappearance of the negative Cotton effect caused by CL (heme environment of cytochrome c): Protect the Heme Environment of Cytochrome C from the Acyl Chain of CL

## Dmt-D-Arg-Phe-Lys-Ald-NH2 [SS-37]
Cytochrome c-CL complex [4]; CL 50 μg/ml, BSA 500 μg/ml, FIG. 23C
  displacement of cytochrome c quenching by bovine serum albumin in the presence of CL: not displaced
Cytochrome c-CL complex [4]; peptide 10 μM, CL 50 μg/ml
  peptide fluorescence on addition of cytochrome c in the presence of CL: similarly quenched
Cytochrome c-CL complex [1]
  peroxidase activity in cytochrome c/CL complex: preventing peroxidase activity in cytochrome c/CL complex
[5]; CL 5-50 μg/ml
  increase in quantal yield of peptide fluorescence: 3 fold
[5]; with 50 μg/ml CL, excitation 350 nm
  λmax of fluorescence emission: 500 nm
[5]; without CL, excitation 350 nm
  λmax of fluorescence emission: 525 nm

## D-Arg-Tyr-Lys-Phe-NH2 ([dR]YKF-NH2; N-terminus assumed; SMILES N=C(N)NCCC[C@@H](N)C(=O)N[C@@H](Cc1ccc(O)cc1)C(=O)N[C@@H](CCCCN)C(=O)N[C@@H](Cc1ccccc1)C(N)=O) [SPI-231]
Cytochrome c-CL complex [1]
  peroxidase activity in cytochrome c/CL complex: preventing peroxidase activity in cytochrome c/CL complex
[3]
  disappearance of the negative Cotton effect caused by CL (heme environment of cytochrome c): Protect the Heme Environment of Cytochrome C from the Acyl Chain of CL
Cytochrome c (with CL)
  CL inhibition of cyt C reduction: prevented CL inhibition of cyt C reduction
